{"source": "patent US10912788B2", "about": "“Methods and compositions for preventing and treating conditions related to alpha-synuclein” (PurePharm, Inc., priority 2018, dated 2021)", "key": {"[1]": {"tested_on": "pediatric treatment-resistant inflammatory bowel disease (Crohn's disease and ulcerative colitis patients)", "conditions": "oral administration; reduced symptoms of gut inflammation, increased sulphated GAG expression; cited from earlier work"}, "[2]": {"tested_on": "PD patients with chronic constipation", "test": "Open-label pilot study of GlcNAc (Villicote) on motor and constipation symptoms in Parkinson's Disease", "format": "in vivo, human", "excerpt": "Participants were enlisted in a movement disorders outpatient clinic in Toronto, Canada. Inclusion criteria were a diagnosis of PD according to UK PD society brain bank criteria and chronic constipation that was not improved by laxatives. Exclusion criteria were the co-occurrence of conditions biasing results and/or changes of medications (including anti-constipation drugs).\nThis was an open-label study that sought to evaluate the efficacy of GlcNAc (Villicote®, Wellesley Therapeutics Inc.) on PD patients with chronic constipation who have previously used laxatives to relieve symptoms of constipation, to little or no avail. […] The self-reported assessments evaluated motor condition and dysfunction (fluctuation and dyskinesia) using section IV of the Unified Parkinson's Disease Rating Scale (UPDRS IV) and asking about presence and frequency of delayed onset (Delayed ON) and Failure of “on” response (no ON); Perceived severity and improvement in of motor dysfunction, and constipation by means of both Patients' Global Impression-Severity (PGI-S) and Patients' Global Impressions of Change (PGI-C) scale accordingly. Severity of Constipation was also evaluated by means of questions 5 and 6 of SCOPA-AUT [17] and the Constipation Scoring System (CSS). In addition, side-effects experienced while on Villicote and qualitative feedback on the product was noted.\nTheir age and disease duration was 65.7±7.5 and 11.7±5.1 years, respectively. Mean UPDRS-III at study entry was 22.1±10.9."}, "[3]": {"conditions": "cited from earlier work"}, "[4]": {"conditions": "PD patients treated with GlcNAc"}, "[5]": {"conditions": "PD patients treated with GlcNAc, motor fluctuations"}}, "data": [{"compound": "CC(=O)N[C@H]1C(O)O[C@H](CO)[C@@H](O)[C@@H]1O", "note": "(some centres unmarked) [GlcNAc, N-acetylglucosamine]", "values": [{"measurement": "efficacy in pediatric treatment-resistant inflammatory bowel disease", "setting": "[1]", "result": "therapeutic efficacy"}, {"measurement": "No-ON", "setting": "[2]; After GlcNAc, 1 month time point, PD patients, before GlcNAc 0.0", "result": 0.0}, {"measurement": "Delayed-ON", "setting": "[2]; After GlcNAc, 1 month time point, PD patients, before GlcNAc 0.1 ± 0.4", "result": "0.1 ± 0.4"}, {"measurement": "SCOPA-AUT (questions 5 and 6)", "setting": "[2]; After GlcNAc, 1 month time point, PD patients, before GlcNAc 3.9 ± 1.9", "result": "3.1 ± 1.7"}, {"measurement": "UPDRS-IV", "setting": "[2]; After GlcNAc, 1 month time point, PD patients, before GlcNAc 3.9 ± 2.4", "result": "3.9 ± 2.4"}, {"measurement": "CSS (Constipation Scoring System)", "setting": "[2]; After GlcNAc, 1 month time point, PD patients, before GlcNAc 9.4 ± 6.1, Wilcoxon Z=−2.043, P=0.041", "result": "6.5 ± 3.9"}, {"measurement": "tolerability", "setting": "[2]; PD patients", "result": "well-tolerated"}, {"measurement": "anti-constipation effect", "setting": "[2]; PD patients failing drugs for constipation", "result": "effective anti-constipation agent"}, {"measurement": "PGI-I Constipation", "setting": "[2]; [4]", "result": "1.6 ± 1.4"}, {"measurement": "PGI-S Constipation", "setting": "[2]; [4]", "result": "2.8 ± 1.3"}, {"measurement": "PGI-I Fluctuation", "setting": "[2]; [5]", "result": 0}, {"measurement": "PGI-S Fluctuation", "setting": "[2]; [5]", "result": "0.8 ± 0.9"}, {"measurement": "effect on motor functions", "setting": "[2]; PD patients, short follow-up", "result": "No effect was observed"}, {"measurement": "solubility in water", "setting": "[3]", "result": 25, "unit": "%"}]}]}
